Experimental findings from US20220073525A1, “COMPOSITIONS FOR INHIBITING UBIQUITIN SPECIFIC PROTEASE 1” (FORMA Therapeutics, Inc., priority 2019, published 2022) are described below.

The assay has as its target USP1 (Homo sapiens, UniProt O94782). In words: Biochemical Assay for USP1 Inhibition (Ub-Rho 110 fluorescence). The settings on record: Table 5; 30 min preincubation, Enzyme 0.025 nM, Substrate Ub-Rho 110 25 nM; read-out: IC50 (μm). In short, it runs like this:
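USP1 at 0.025 nM, preincubated 30 min with compound (25 μM to 1.3 nM, 10-point), then Ub-Rho 110 at 25 nM (<<Km) in Tris-HCl pH 8.0, 1 mM GSH, 0.03% BGG, 0.01% Triton X-100. Fluorescence read kinetically over 11 min; % inhibition versus no-enzyme and DMSO controls, IC50 from 4-parameter logistic fit.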

Sequence of USP1 (O94782 whole entry): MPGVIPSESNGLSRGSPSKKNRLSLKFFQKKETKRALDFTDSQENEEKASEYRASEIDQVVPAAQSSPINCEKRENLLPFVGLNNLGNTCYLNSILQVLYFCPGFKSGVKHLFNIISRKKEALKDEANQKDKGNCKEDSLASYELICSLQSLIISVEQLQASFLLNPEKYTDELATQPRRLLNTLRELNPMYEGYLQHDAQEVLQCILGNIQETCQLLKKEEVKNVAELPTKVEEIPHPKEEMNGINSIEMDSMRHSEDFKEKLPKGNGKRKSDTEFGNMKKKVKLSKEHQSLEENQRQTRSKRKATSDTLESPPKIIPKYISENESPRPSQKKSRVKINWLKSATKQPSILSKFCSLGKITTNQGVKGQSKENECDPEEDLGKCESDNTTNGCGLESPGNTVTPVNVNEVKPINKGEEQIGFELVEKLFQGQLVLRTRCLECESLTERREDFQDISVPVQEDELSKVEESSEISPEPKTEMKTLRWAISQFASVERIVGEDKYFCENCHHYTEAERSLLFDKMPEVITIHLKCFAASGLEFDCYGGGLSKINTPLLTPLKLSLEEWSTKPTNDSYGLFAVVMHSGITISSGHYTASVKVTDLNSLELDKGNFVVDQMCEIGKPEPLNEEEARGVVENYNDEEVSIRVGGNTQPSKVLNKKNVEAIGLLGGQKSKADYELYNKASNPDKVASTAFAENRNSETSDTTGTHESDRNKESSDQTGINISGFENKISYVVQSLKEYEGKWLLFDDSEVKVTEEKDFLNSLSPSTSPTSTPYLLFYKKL
Sequence of USP1 (Q8TAF3 whole entry partner): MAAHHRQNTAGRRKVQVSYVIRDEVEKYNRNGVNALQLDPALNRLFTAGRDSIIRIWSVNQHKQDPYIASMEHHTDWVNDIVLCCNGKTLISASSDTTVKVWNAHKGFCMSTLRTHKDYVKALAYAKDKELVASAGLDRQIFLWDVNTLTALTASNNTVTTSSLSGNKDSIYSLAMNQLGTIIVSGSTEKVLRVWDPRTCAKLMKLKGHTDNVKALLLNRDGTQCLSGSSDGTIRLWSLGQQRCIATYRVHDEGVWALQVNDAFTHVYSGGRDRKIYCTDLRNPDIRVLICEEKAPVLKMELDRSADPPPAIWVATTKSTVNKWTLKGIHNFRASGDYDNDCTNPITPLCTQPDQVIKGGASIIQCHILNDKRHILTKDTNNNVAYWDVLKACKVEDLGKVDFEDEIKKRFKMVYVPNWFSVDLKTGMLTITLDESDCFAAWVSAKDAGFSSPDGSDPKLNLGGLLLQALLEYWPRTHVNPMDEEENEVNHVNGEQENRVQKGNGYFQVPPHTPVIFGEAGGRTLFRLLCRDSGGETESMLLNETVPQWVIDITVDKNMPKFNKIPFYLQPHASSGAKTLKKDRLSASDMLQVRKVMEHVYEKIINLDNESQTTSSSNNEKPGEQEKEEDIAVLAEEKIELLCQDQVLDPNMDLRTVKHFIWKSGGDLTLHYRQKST

What is called IC50 is the concentration at which inhibition is half-maximal. For `Cc1nc(-c2cccnc2C(C)C)c2n1CCN(c1ccc(N3CCCCC3=O)cc1)C2` [Compound 38, 1-(4-{3-methyl-1-[2-(propan-2-yl)pyridin-3-yl]-5H,6H,7H,8H-imidazo[1,5-a]pyrazin-7-yl}phenyl)piperidin-2-one], the IC50 is more than 25 µM.
Consider `Cc1nc(-c2cccnc2C(C)C)c2n1CCN(c1ccc(-c3nc(C(F)(F)F)cn3C3CN(C)C3)cc1)C2` [Compound 73, 3-(3-methyl-7-{4-[1-(1-methylazetidin-3-yl)-4-(trifluoromethyl)-1H-imidazol-2-yl]phenyl}-5H,6H,7H,8H-imidazo[1,5-a]pyrazin-1-yl)-2-(propan-2-yl)pyridine], for which the IC50 was not above 1 µM.
`CNC(=O)c1ccc(N2CCn3c(C)nc(-c4cccnc4C(C)C)c3C2)cc1` [Compound 26, N-methyl-4-{3-methyl-1-[2-(propan-2-yl)pyridin-3-yl]-5H,6H,7H,8H-imidazo[1,5-a]pyrazin-7-yl}benzamide]: the IC50 is more than 25 µM.
Regarding `Cc1nc(-c2cccnc2C(C)C)c2n1CCN(c1ccc(-c3nc(C(F)(F)F)cn3C)nc1)C2` [Compound 75, 5-{3-methyl-1-[2-(propan-2-yl)pyridin-3-yl]-5H,6H,7H,8H-imidazo[1,5-a]pyrazin-7-yl}-2-[1-methyl-4-(trifluoromethyl)-1H-imidazol-2-yl]pyridine], the IC50 was not above 1 µM.
Take `Cc1nc(-c2cccnc2C(C)C)c2n1CCN(c1ccc(C(=O)N3CCC[C@H]3C)cc1)C2` [Compound 54-1, 3-(3-methyl-7-{4-[(2R)-2-methylpyrrolidine-1-carbonyl]phenyl}-5H,6H,7H,8H-imidazo[1,5-a]pyrazin-1-yl)-2-(propan-2-yl)pyridine]: the IC50 is 10 to 25 µM.
As for `Cc1nc(-c2cccnc2C(C)C)c2n1CCN(c1cccc3[nH]ccc13)C2` [Compound 12, 4-{3-methyl-1-[2-(propan-2-yl)pyridin-3-yl]-5H,6H,7H,8H-imidazo[1,5-a]pyrazin-7-yl}-1H-indole], the figure is more than 25 µM.
As for `Cc1nc(-c2cccnc2C(C)C)c2n1CCN(c1ccc(C(=O)N(C)CC(F)(F)F)cc1)C2` [Compound 58, N-methyl-4-{3-methyl-1-[2-(propan-2-yl)pyridin-3-yl]-5H,6H,7H,8H-imidazo[1,5-a]pyrazin-7-yl}-N-(2,2,2-trifluoroethyl)benzamide], the half-maximal inhibitory concentration (IC50) fell in the range of 1 to 10 µM.
On to `CNC(=O)c1ccc(N2CCn3c(C)nc(-c4cccnc4C(C)C)c3C2)c(F)c1` [Compound 48, 3-fluoro-N-methyl-4-{3-methyl-1-[2-(propan-2-yl)pyridin-3-yl]-5H,6H,7H,8H-imidazo[1,5-a]pyrazin-7-yl}benzamide], for which the concentration for half-maximal inhibition (IC50) is more than 25 µM.
As for `Cc1nc(-c2cccnc2OC(F)F)c2n1CCN(c1ccc(-c3nc(C(F)(F)F)cn3C)cc1)C2C` (single isomer, unassigned) [Compound 52-2, 2-(difluoromethoxy)-3-[-3,8-dimethyl-7-{4-[1-methyl-4-(trifluoromethyl)-1H-imidazol-2-yl]phenyl}-5H,6H,7H,8H-imidazo[1,5-a]pyrazin-1-yl]pyridine], the IC50 was 1 to 10 µM.
As for `Cc1nc(-c2cccnc2C(C)C)c2n1CCN(c1ccc(C3=CCON3)cc1)C2` [Compound 32, 3-{7-[4-(2,5-dihydro-1,2-oxazol-3-yl)phenyl]-3-methyl-5H,6H,7H,8H-imidazo[1,5-a]pyrazin-1-yl}-2-(propan-2-yl)pyridine], the figure is 1 to 10 µM.
`Cc1nc(-c2cccnc2C(C)C)c2n1CCN(c1ccc(-c3cnn(CC(C)C)c3)cc1)C2` [Compound 69, 3-(3-methyl-7-{4-[1-(2-methylpropyl)-1H-pyrazol-4-yl]phenyl}-5H,6H,7H,8H-imidazo[1,5-a]pyrazin-1-yl)-2-(propan-2-yl)pyridine]: the half-inhibitory concentration (IC50) lay in the range of 1 to 10 µM.
`Cc1nc(-c2cccnc2C(C)C)c2n1CCN(c1ccc(C3CNC(=O)C3)cc1)C2` (stereo not drawn) [Compound 34, 4-(4-{3-methyl-1-[2-(propan-2-yl)pyridin-3-yl]-5H,6H,7H,8H-imidazo[1,5-a]pyrazin-7-yl}phenyl)pyrrolidin-2-one]: the IC50 is more than 25 µM.
On to `Cc1nc(-c2cccnc2C(C)C)c2n1CCN(c1ccc(-n3nccn3)cc1)C2` [Compound 67, 3-{3-methyl-7-[4-(2H-1,2,3-triazol-2-yl)phenyl]-5H,6H,7H,8H-imidazo[1,5-a]pyrazin-1-yl}-2-(propan-2-yl)pyridine], for which the IC50 was in the range of 1 to 10 µM.
On to `Cc1nc(-c2cccnc2C(C)C)c2n1CCN(c1ccc(-c3cncn3C)cc1)C2` [Compound 28, 3-{3-methyl-7-[4-(1-methyl-1H-imidazol-5-yl)phenyl]-5H,6H,7H,8H-imidazo[1,5-a]pyrazin-1-yl}-2-(propan-2-yl)pyridine], for which the IC50 was more than 25 µM.
With `Cc1nc(-c2cccnc2C(C)C)c2n1CCN(c1ccc(N3CCCC3=O)cc1)C2` [Compound 43, 1-(4-{3-methyl-1-[2-(propan-2-yl)pyridin-3-yl]-5H,6H,7H,8H-imidazo[1,5-a]pyrazin-7-yl}phenyl)pyrrolidin-2-one], the IC50 is 1 to 10 µM.
